Values joined by “and” are separate entries in the source; they are usually repeats but may differ in a detail not shown here. Equal entries are not always repeated.
How the values were obtained:
GTF D [1] = biological target: T1, GTF D (Streptococcus mutans serotype c, UniProt P49331); experiment: GTF activity adsorbed onto sHA surface, GTF D; format: biochemical
T1 construct: made in house; host or cells: Streptococcus milleri NH5 (culture supernatant)
Experimental: (§1) Glucosyltransferase activity was measured by the incorporation of [^14C-glucose] from labeled sucrose (NEN Research Products, Boston, Mass.) into glucans (Germaine et al., 1974; Venkitaraman et al., 1995). The GTF enzyme added to each sample for all assays was equivalent to the amount required to incorporate 1.0-1.5 μmol of glucose over the four hours reaction (1.0-1.5 units).
(§2) For surface assays, the GTFs were adsorbed to hydroxyapatite beads coated with clarified whole saliva (free of GTF activity), as detailed elsewhere (Koo et al., 2000c; Schilling and Bowen, 1988, Venkitaraman et al., 1995). The saliva-coated hydroxyapatite (sHA) beads were exposed to sufficient enzyme to saturate the surface as determined experimentally. Following the adsorption of the enzyme, the beads were washed 3 times with buffer to remove the loosely bound material and exposed to 300 μl of the two-fold dilution series of test compounds (or control) for 30 min. at the same concentrations described above. The beads were washed and exposed to 300 μl [^14C-glucose]-sucrose substrate (100.0 mmol/l sucrose, final concentration). The radiolabeled glucan formed was collected and quantified by scintillation counting (Germaine et al., 1974; Venkitaraman et al., 1995). All the solution and surface assays were done in quadruplicate in at least 3 different experiments.

GTF D [2] = biological target: T1, GTF D; experiment: GTF activity in solution, GTF D; format: biochemical; conditions: read-out: GTF D sol. % of Inhib.
Experimental: as §1
For solution assays, purified GTF B, C, D and Ss were mixed with a two-fold dilution series of the test compounds (concentration ranging from 125 to 500 μM) and incubated with [^14C-glucose]-sucrose substrate (0.2 μCi/ml) (200.0 mmol/l sucrose, 40 μmol/l dextran 9000, 0.02% sodium azide in adsorption buffer—50 mM KCl, 1.0 mM KPO4, 1.0 mM CaCl2, 0.1 mM MgCl2−pH=6.5) to reach a final concentration of 100 mmol/l sucrose (200 μl final volume). For the control, the same reaction was carried out, where ethanol:DMSO (final concentration of 7.5% and 1.25%, v/v) or ethanol (final concentration of 5%, v/v) replaced the test agent solutions. The samples were incubated 37° C. with rocking for 4 h. After incubation, ice-cold ethanol (1.0 ml) was added and the samples were stored for 18 h, 4° C. for precipitation of glucans. Radiolabeled glucan was determined by scintillation counting (Germaine et al., 1974; Venkitaraman et al., 1995).

GTF C = biological target: T2, GTF C (Streptococcus mutans serotype c, UniProt P13470); experiment: GTF activity adsorbed onto sHA surface, GTF C; format: biochemical
T2 construct: The supernatant was carefully collected as the source of GTF C; made in house; host or cells: Streptococcus mutans WHB 410 (endogenous gtfC; urea/Triton extract of washed cells, hydroxyapatite chromatography)
T2 sequence (P13470 35-1455): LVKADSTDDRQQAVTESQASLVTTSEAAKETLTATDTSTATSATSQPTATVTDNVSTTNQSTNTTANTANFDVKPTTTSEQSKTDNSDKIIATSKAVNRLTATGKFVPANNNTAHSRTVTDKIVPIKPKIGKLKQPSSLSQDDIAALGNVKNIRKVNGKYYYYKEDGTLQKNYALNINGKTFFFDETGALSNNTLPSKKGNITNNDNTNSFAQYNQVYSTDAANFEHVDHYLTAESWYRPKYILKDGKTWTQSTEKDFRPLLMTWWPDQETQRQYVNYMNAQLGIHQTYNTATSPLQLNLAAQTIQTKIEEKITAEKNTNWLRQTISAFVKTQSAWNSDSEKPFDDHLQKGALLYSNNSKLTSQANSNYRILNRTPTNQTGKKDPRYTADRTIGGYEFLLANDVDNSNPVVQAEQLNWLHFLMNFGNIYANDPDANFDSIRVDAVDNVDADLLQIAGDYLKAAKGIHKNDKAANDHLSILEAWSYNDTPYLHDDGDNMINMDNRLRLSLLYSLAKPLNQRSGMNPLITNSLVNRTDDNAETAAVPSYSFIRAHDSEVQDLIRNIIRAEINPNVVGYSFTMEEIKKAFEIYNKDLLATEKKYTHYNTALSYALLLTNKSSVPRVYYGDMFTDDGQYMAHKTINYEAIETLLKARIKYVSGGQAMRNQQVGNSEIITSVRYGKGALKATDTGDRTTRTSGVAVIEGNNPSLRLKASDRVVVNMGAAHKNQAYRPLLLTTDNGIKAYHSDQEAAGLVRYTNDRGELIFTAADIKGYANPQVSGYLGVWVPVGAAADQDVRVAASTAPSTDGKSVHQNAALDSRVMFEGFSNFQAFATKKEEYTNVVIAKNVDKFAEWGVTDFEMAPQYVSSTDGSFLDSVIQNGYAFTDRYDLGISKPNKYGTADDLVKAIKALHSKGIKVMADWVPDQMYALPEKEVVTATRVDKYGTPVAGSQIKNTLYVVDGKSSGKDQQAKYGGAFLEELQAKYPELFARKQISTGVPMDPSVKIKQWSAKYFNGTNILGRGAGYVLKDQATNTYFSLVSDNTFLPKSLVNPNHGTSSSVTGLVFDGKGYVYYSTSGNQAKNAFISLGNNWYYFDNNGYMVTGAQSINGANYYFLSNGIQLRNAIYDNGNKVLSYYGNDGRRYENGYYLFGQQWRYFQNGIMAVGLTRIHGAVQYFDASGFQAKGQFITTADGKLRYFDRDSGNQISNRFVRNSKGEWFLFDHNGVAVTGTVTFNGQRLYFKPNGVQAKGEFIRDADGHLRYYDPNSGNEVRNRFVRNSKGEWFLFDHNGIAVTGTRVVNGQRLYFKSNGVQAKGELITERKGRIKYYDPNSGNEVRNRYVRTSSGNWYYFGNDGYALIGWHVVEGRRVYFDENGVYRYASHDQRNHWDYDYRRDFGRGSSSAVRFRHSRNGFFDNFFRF
Experimental: as §1, §2

[3] = system: Mutans Streptococci Strains; experiment: MIC and MBC, broth dilution, all strains stated together; format: cell-based, S. mutans (GS-5 and UA159) and S. sobrinus 6715; conditions: Streptococcus mutans; all strains tested (S. mutans GS-5, UA159, S. sobrinus 6715); read-out: MIC
Procedure, shortened: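 Broth microdilution and macrodilution in TSB per NCCLS guidelines; inoculum 5×10^5 CFU/ml, test compounds 15.6–500 μM in two-fold dilutions. MIC and MBC values determined in quadruplicate across at least 3 independent experiments.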

[4] = system: Streptococcus sobrinus 6715; experiment: Rat caries experiment: S. sobrinus recovered from the jaws; format: in vivo, Sprague Dawley rats; conditions: rats, topical twice daily, five weeks; 1.33 mM (fluoride 250 ppm); means (SD)
Experimental: Seven litters of ten female Sprague Dawley rats aged 14 days were purchased with their dams from Charles River (Kingston, N.Y., USA). […] The experiment proceeded for five weeks, at which time the animals were killed by CO2 asphyxiation. The lower left jaw was aseptically dissected, suspended in 5.0 mL of sterile saline solution, and sonicated (three 10-second pulses with 5-second intervals at 30 watts, Branson Sonifier 450). The suspension was plated on mitis salivarius agar plus streptomycin to estimate S. sobrinus population and on blood agar to determine total cultivable flora (TCF). […] The determination of caries score was blind by codification of the jaws and was done by 1 calibrated examiner. […] The level of significance was 5%.

[5] = read-out: GTF D surf. % of Inhib.
[6] = read-out: GTF C surf. % of Inhib.

T1 sequence (P49331 whole entry): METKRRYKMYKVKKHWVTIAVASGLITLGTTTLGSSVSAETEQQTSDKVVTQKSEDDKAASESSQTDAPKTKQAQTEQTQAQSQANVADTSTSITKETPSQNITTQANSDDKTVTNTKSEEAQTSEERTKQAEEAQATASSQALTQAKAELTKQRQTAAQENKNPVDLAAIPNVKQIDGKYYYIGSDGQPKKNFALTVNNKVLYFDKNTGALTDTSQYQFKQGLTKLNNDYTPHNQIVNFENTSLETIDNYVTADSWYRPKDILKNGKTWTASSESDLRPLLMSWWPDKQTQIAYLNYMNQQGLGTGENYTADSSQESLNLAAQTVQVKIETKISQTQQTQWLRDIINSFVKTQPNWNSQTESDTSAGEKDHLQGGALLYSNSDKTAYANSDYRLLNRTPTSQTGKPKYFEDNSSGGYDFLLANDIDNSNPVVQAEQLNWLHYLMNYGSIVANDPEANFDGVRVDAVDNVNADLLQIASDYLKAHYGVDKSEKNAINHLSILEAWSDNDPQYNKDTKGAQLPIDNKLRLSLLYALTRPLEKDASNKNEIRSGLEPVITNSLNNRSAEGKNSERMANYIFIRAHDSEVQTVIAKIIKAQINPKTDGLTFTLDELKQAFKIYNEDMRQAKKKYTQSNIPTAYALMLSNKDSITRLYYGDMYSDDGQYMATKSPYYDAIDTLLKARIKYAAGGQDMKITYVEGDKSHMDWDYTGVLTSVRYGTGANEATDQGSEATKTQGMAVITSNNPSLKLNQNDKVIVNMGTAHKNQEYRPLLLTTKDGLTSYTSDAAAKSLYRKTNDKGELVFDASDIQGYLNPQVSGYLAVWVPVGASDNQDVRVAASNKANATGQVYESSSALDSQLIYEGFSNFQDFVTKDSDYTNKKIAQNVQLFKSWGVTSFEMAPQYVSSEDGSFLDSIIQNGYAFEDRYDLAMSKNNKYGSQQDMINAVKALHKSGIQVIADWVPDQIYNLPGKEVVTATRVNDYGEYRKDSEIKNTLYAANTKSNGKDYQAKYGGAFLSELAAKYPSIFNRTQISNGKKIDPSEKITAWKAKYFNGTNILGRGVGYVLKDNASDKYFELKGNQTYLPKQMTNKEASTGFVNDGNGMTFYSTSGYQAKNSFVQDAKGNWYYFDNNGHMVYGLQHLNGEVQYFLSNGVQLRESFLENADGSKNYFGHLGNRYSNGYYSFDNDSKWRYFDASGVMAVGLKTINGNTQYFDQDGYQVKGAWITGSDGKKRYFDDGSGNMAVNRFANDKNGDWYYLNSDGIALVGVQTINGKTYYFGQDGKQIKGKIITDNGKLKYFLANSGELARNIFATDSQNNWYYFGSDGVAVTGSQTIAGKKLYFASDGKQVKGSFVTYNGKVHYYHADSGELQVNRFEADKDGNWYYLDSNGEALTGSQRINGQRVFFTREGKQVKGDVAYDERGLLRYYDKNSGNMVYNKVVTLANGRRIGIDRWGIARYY

O=c1cc(-c2ccc(O)cc2)oc2cc(O)cc(O)c12 [Apigenin]
IC50 (GTF D [1]): > 1000 µM
inhibition at 125 µM (GTF D [1]; [5]): 17%
inhibition at 250 µM (GTF D [1]; [5]): 25.5%
inhibition at 500 µM (GTF D [1]; [5]): 33%
inhibition at 125 µM (GTF D [2]): 70.8%
inhibition at 250 µM (GTF D [2]): 90.2%
inhibition at 500 µM (GTF D [2]): 95%
IC50 (GTF C; IC50 for surface-adsorbed GTF C, surface-adsorbed): 458 µM and 451 µM
inhibition at 125 µM (GTF C; [6]): 30%
inhibition at 250 µM (GTF C; [6]): 42.1%
inhibition at 500 µM (GTF C; [6]): 60.5%
MIC [3]: > 500 µM
Infection by S. sobrinus, % [4]: 40.6 (14.2)^ab %
